# Source: patent publication US9249453B2, “Method for identifying a malodor inhibitor” (Kao Corporation, priority 2011, dated 2016)
# Assays:
# Assay type in all cases: cell-based
# OR5P3 = biological target: T1, OR5P3 (Homo sapiens, UniProt Q8WZ94); test: Luciferase reporter assay: suppression of the skatole response of OR5P3 expressed in HEK293 cells; conditions: test substance 100 μM mixed with 300 μM skatole, HEK293 cells expressing OR5P3
# T1 construct: expressed in transfected cells; host or cells: HEK293
# T1 sequence (Q8WZ94 1-311): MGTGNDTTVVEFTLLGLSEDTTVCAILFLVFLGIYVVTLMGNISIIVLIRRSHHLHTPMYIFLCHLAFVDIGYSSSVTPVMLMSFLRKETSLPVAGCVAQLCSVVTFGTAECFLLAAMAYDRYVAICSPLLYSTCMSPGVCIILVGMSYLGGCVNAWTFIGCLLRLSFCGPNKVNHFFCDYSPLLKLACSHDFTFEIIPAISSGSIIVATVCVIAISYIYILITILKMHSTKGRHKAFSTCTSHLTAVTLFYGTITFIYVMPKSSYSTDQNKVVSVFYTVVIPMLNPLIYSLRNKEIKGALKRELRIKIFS
# Procedure: (§1) A reaction solution having a composition shown in Table 1 was prepared on a clean bench, and left to stand for 15 minutes. The solution was dispensed to each well of a 96-well plate (BD). Subsequently, HEK293 cells (100 μL, 3×10^5 cells/cm^2) were seeded in each well and cultured for 24 hours in an incubator at 37° C. and under 5% CO2 conditions.
# (§2) The olfactory receptor expressed in HEK293 cells activates adenylate cyclase with the aid of Gαs present in cells, to thereby increase intracellular cAMP level. In this study, odorant response was measured by a luciferase reporter gene assay which monitored the intracellular cAMP level as the luminescence value derived from a firefly luciferase gene (fluc2P-CRE-hygro). Also, a Renilla luciferase gene fused downstream of a CMV promoter (hRluc-CMV) was also transfected to HEK293 cells as an internal standard to correct errors in gene transfer efficiency and number of cells.
# (§3) Cell culturing was performed for four hours in a CO2-incubator, whereby the luciferase gene sufficiently expressed in the cells. Luciferase activity was measured by means of a Dual-Glo™ luciferase assay system (promega) according to an instruction manual thereof. The luminescence value derived from firefly luciferase induced by odorant stimulation was divided by the luminescence value of cells which were not stimulated with odorants. The thus-obtained—called “fold increase”—was employed as an index for response intensity.
# (§4) The response inhibition rate of a test substance was calculated as follows. Firstly, luminescence value derived from firefly luciferase induced by stimulation with skatole (X), and luminescence value in cells which expressed the same receptor but were not stimulated with skatole (Y) were determined. By subtracting Y from X, the receptor activity by stimulation with skatole alone (X−Y) was determined. Similarly, the luminescence value induced by stimulation with a mixture of skatole and a test substance (Z) was determined. Through subtracting Y (the luminescence value in cells which expressed the same receptor but were not stimulated with skatole) from Z, the receptor activity (Z−Y) by stimulation with a mixture of skatole and the test substance was obtained. From the thus-obtained receptor activity by stimulation with skatole alone (X−Y) and the receptor activity in the presence of a test material (Z−Y), the response inhibition rate of the test substance was calculated by the following equation: Inhibition rate (%)={1−(Z−Y)/(X−Y)}×100.
# (§5) In each case, multiple independent experiments were performed in duplicate, and the average of each experiment was used.
# OR5K1 = biological target: T2, OR5K1 (Homo sapiens, UniProt Q8NHB7); test: Luciferase reporter assay: suppression of the skatole response of OR5K1 expressed in HEK293 cells; conditions: test substance 100 μM mixed with 300 μM skatole, HEK293 cells expressing OR5K1; for inhibition at 100 µM: 4 h, read-out: Inhibition rate 5K1
# T2 construct: expressed in transfected cells; host or cells: HEK293
# T2 sequence (Q8NHB7 1-308): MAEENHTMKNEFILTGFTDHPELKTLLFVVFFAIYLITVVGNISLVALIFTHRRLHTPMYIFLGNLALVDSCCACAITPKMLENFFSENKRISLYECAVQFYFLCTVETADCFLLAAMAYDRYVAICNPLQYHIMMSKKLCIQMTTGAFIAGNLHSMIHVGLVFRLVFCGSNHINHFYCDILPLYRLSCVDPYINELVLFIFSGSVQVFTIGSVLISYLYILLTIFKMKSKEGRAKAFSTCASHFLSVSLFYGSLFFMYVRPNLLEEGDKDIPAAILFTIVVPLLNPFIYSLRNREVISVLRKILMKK
# Procedure: as §1, §2, §3, §4, §5
# OR2W1 = biological target: T3, OR2W1 (Homo sapiens, UniProt Q9Y3N9); test: Luciferase reporter assay: suppression of the skatole response of OR2W1 expressed in HEK293 cells; conditions: test substance 100 μM mixed with 300 μM skatole, HEK293 cells expressing OR2W1; for inhibition at 100 µM: 4 h, read-out: Inhibition rate 2W1
# T3 construct: expressed in transfected cells; host or cells: HEK293
# T3 sequence (Q9Y3N9 1-320): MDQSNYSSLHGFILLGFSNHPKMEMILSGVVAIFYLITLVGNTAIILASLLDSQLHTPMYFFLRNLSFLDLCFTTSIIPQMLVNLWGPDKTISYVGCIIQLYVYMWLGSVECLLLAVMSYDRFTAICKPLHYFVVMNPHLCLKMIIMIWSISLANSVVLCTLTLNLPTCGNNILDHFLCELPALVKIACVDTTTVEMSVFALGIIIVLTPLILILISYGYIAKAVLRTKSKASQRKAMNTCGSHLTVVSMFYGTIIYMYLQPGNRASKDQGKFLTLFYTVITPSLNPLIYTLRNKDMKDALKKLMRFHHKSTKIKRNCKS
# Procedure: as §1, §2, §3, §4, §5
# OR8H1 = biological target: T4, OR8H1 (Homo sapiens, UniProt Q8NGG4); test: Luciferase reporter assay: suppression of the skatole response of OR8H1 expressed in HEK293 cells; conditions: test substance 100 μM mixed with 300 μM skatole, HEK293 cells expressing OR8H1; for inhibition at 100 µM: 4 h, read-out: Inhibition rate 8H1
# T4 construct: expressed in transfected cells; host or cells: HEK293
# T4 sequence (Q8NGG4 1-311): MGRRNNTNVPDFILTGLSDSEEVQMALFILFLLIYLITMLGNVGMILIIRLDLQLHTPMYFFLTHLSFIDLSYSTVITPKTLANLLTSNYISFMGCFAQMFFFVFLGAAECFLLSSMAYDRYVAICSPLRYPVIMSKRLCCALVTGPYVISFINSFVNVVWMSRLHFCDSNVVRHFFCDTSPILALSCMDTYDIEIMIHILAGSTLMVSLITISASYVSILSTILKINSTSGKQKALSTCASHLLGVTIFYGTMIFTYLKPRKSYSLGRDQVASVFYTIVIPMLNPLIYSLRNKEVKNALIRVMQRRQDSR
# Procedure: as §1, §2, §3, §4, §5
Compound,Inhibition rate 5P3 (OR5P3),inhibition at 100 µM (OR5K1) [%],inhibition at 100 µM (OR2W1) [%],inhibition at 100 µM (OR8H1) [%],Inhibition rate 5K1 (OR5K1),Inhibition rate 2W1 (OR2W1),Inhibition rate 8H1 (OR8H1)
"CC1=CCC(C=CC(C)C(C)O)C1(C)C (centres unmarked) [Ebanol, 3-Methyl-5-(2,2,3-trimethyl-3-cyclopenten-1-yl)-4-penten-2-ol]",A (A >80%),> 80,50 to 80,50 to 80,,,
"CC(C)(C)C1CCC(O)CC1 (centres unmarked) [p-tert-butlcyclohexanol, 4-(1,1-Dimethylethyl)-cyclohexanol]",A (A >80%),> 80,< 20,> 80,,,
"CC(CC=O)CCCC(C)(C)O (centres unmarked) [hydroxycitronellal, 7-Hydroxy-3,7-dimethyl-octanal]",B (B >50%),< 20,20 to 50,20 to 50,,,
"CC12CCC(C1)C(C)(C)C2O (centres unmarked) [fenchyl alcohol, 1,3,3-trimethyl-bicyclo[2.2.1]heptan-2-ol]",C (C >20%),< 20,20 to 50,20 to 50,,,
"CC/C=C\CCOC(=O)c1ccccc1O [cis-3-hexynlyl salicylate, 3(Z)-Hexenyl 2-hydroxy benzoate]",B (B >50%),,,,C (C >20%),B (B >50%),
"CCOC(=O)OC1CCCCC1C(C)(C)C (centres unmarked) [Flormat, Ethyl 2-tert-butyl cyclohexyl carbonate]",A (A >80%),,,,B (B >50%),A (A >80%),A (A >80%)
"CC/C=C\CC1=C(C)CCC1=O [cis-jasmone, (Z)-2-(2-Pentenyl)-3-methyl-2-cyclopenten-1-one]",C (C >20%),< 20,50 to 80,20 to 50,,,
"CC(=O)OC(C)(C)Cc1ccccc1 [dimethylbenzylcarbinyl acetate, α,α-Dimethyl phenylethyl acetate]",C (C >20%),,,,C (C >20%),,B (B >50%)
4(3)-(4-Methyl-3-pentenyl)-3-cyclohexenylmethyl acetate [myraldyl acetate],C (C >20%),,,,,C (C >20%),C (C >20%)
"C=C(C)C1CC=C(C=O)CC1 (centres unmarked) [perillaldehyde, 4-(1-Methylethenyl)-1-cyclohexene-1-carboxyaldehyde]",,20 to 50,< 20,50 to 80,,,
"C=CC(C)=CCC(C)(C)C(=NO)C(C)C [Labienoxime, 2,4,4,7-Tetramethyl-6,8-nonadiene-3-one oxime]",,< 20,50 to 80,20 to 50,,,
"CCCCCCOC(=O)c1ccccc1O [hexyl salicylate, n-Hexyl-o-hydroxy benzoate]",C (C >20%),,,,,B (B >50%),
"2,6-Dimethyl-2-octanol/3,7-Dimethyl-3-octanol [tetrahydromugol]",C (C >20%),,,,C (C >20%),,C (C >20%)
"CC(C)Cc1ccc(CC(C)C=O)cc1 (stereo not drawn) [suzaral, α-Methyl-4-(2-methylpropyl)-benzenepropanal]",,< 20,20 to 50,50 to 80,,,
"CC(=O)OCCC(C)CCC=C(C)C (centres unmarked) [citronellyl acetate, 3,7-Dimethyl-6-octen-1-yl acetate]",,20 to 50,20 to 50,20 to 50,,,
"CCOC(=O)C1OC1(C)c1ccccc1 (centres unmarked) [Ethyl-2,3-epoxy-3-methyl-3-phenyl propionate]",C (C >20%),,,,C (C >20%),,B (B >50%)
"CC(C)(C)c1ccc(CCC=O)cc1 [bourgeonal, 3-(4-tert-butylphenyl)propionaldehyde]",,50 to 80,> 80,< 20,,,
"Hexahydro-4,7-methanoinden-5(6)-yl acetate [tricyclodecenyl acetate]",C (C >20%),,,,C (C >20%),,B (B >50%)
"CC(C)=CCCC1=CCC(C=O)CC1 (centres unmarked) [myrac aldehyde, 4-(4-Methyl-3-penten-1-yl)-3-cyclohexene-1-carboxaldehyde]",,< 20,> 80,20 to 50,,,
C=CCOC(=O)CCC1CCCCC1 [Allyl cyclohexylpropionate],,,,,C (C >20%),C (C >20%),C (C >20%)
"CC1=CC(C)C(C=O)CC1 (centres unmarked) [Triplal, Dimethyl-3-cyclohexene-1-carboxaldehyde]",C (C >20%),,,,,C (C >20%),C (C >20%)
"CC(=O)C=CC1=C(C)CCCC1(C)C [β-ionone, 4-(2,6,6-Trimethyi-1-cyclohexen-1-yl)-3-buten-2-one]",,,,,B (B >50%),C (C >20%),A (A >80%)
